From patent US20100056516A1 (priority 2006, published 2010)

Key:
HXB2 virus = test: microbe, parasite or virus in culture; type: cell-based, HIV; settings: Human immunodeficiency virus 1, HXB2, HeLaP4-2, read-out: antiviral IC50 (SCIA-B)
Experimental: An assay for measuring the inhibition of acute HIV infection with HeLa P4-2 cells in a single cycle infectivity assay (SCIA-A) was conducted in accordance with Joyce, J. G., et al., J. Biol. Chem., 2002, 277, 45811, Hazuda, D. J. et al., Science, 2000, 287, 646, and Kimpton, J. et al, J. Virol. 1992, 66, 2232. Infectious virus was produced by transfecting 293T cells with HIV proviral DNA in which the integrase gene was derived from a IIIB isolate and the remainder of the HIV genome was derived from the NL4-3 isolate.
This assay B for measuring the inhibition of acute HIV infection with HeLa P4-2 cells in a single cycle infectivity assay (SCIA-B) is essentially the same as Assay A described above, except that HXB2 virus is employed instead of the IIIb isolate.

HIV integrase = HIV integrase (Human immunodeficiency virus type 1 group M subtype B, UniProt P04585); test: integrase strand transfer assay (STA); type: biochemical; settings: integrase strand transfer; read-out: IC50 in the STA assay

SMILES | IC50 (HXB2 virus) [µM] | IC50 (HIV integrase) [µM]
O=c1c(C2CCCC2)c(O)c2cccnc2n1O [Example 41, 3-Cyclopentyl-1,4-dihydroxy-1,8-naphthyridin-2(1H)-one] | < 100 | < 50
CCOC(=O)c1c(NCc2ccccc2)c2cccnc2n(O)c1=O [Example 128, Ethyl 4-(benzylamino)-1-hydroxy-2-oxo-1,2-dihydro-1,8-naphthyridine-3-carboxylate] | < 100 | < 50
COc1ccccc1NC(=O)c1c(O)c2cccnc2n(O)c1=O [Example 11, 1,4-Dihydroxy-N-(2-methoxyphenyl)-2-oxo-1,2-dihydro-1,8-naphthyridine-3-carboxamide] | < 100 | < 50
CC(C1CCN(c2cc(=O)n(O)c3ncccc23)CC1)N1CCOCC1 (stereo not shown) [Example 156, 1-hydroxy-4-{4-[1-(4-morpholinyl)ethyl]-1-piperidinyl}-1,8-naphthyridin-2(1H-one)] | < 100 | < 50
O=c1cc(N2CCC(Cc3ccccc3)CC2)c2cccnc2n1O [Example 133, 4-(4-benzylpiperidin-1-yl)-1-hydroxy-1,8-naphthyridin-2(1H)-one] | < 100 | < 50
O=c1cc(NCc2ccncc2)c2cccnc2n1O [Example 160, 1-hydroxy-4-[(4-pyridinylmethyl)amino]-1,8-naphthyridin-2 (1H-one)] | < 100 | < 50
O=c1cc(N[C@@H]2CCN(Cc3ccccc3)C2)c2cccnc2n1O [Example 113, 4-{[(3R)-1-Benzylpyrrolidin-3-yl]amino}-1-hydroxy-1,8-naphthyridin-2(1H)-one] | < 100 | < 50
CN1C(=O)c2c(c3cccnc3n(O)c2=O)NC1c1ccccc1-c1ccccc1 (stereo not shown) [Example 217, 2-Biphenyl-2-yl-6-hydroxy-3-methyl-2,3-dihydropyrimido[5,4-c]-1,8-naphthyridine-4,5(1H, 6H)dione] | < 100 | < 50
O=c1c(-c2cccc(F)c2)c(O)c2cccnc2n1O [Example 36, 3-(3-Fluorophenyl)-1,4-dihydroxy-1,8-naphthyridin-2(1H)-one] | < 100 | < 50
O=c1c(-c2ccccc2)c(O)c2cc(-c3cccs3)cnc2n1O [Example 75, 6-(thien-2-yl)-1,4-dihydroxy-3-phenyl-1,8-napthyridin-2(1H)-one] | < 100 | < 50
O=c1cc(NCc2cccnc2)c2cccnc2n1O [Example 162, 1-hydroxy-4-[(3-pyrindinylmethyl)amino]-1,8-naphthyridin-2 (1H-one)] | < 100 | < 50
CC(c1ccc(-c2cc(=O)n(O)c3ncccc23)cc1)N1CCOCC1 (stereo not shown) [Example 174, 1-hydroxy-4-[4-(1-morpholin-4-ylethyl)phenyl]-1,8-naphthyridin-2(1H)-one] | < 100 | < 50
O=c1c(-c2ccccc2)c(O)c2cc(-c3ccccc3)cnc2n1O [Example 51, 1,4-Dihydroxy-3,6-diphenyl-1,8-maphthyridin-2(1H)-one] | < 100 | < 50
CCOC(=O)c1c(O)c2cccnc2n(O)c1=O [Example 1, Ethyl 1,4-dihydroxy-2-oxo-1,2-dihydro-1,8-naphthyridine-3-carboxylate] | < 100 | < 50
O=c1cc(NC(CN2CCCCC2)c2ccccc2)c2cccnc2n1O (stereo not shown) [Example 166, 1-hydroxy-4-{[1-phenyl-2-(1-piperidinyl)ethyl]amino}-1,8-naphthyridin-2 (1H-one)] | < 100 | < 50
CS(=O)(=O)Nc1ccccc1-c1cc(=O)n(O)c2ncccc12 [Example 201, N-[2-(1-hydroxy-2-oxo-1,2-dihydro-1,8-naphthyridin-4-yl)phenyl]methanesulfo-namide] | < 100 | < 50
O=C(CN1CCN(Cc2cccc(-c3cc(=O)n(O)c4ncccc34)c2)CC1)N1CCCC1 [Example 208, 1-hydroxy-4-[3-({4-[2-oxo-2-(1-pyrrolidinyl)ethyl]-1-piperazinyl}methyl)phenyl]-1,8-naphthyridin-2(1H-one)] | < 100 | < 50
CCOC(=O)c1c(O)c2cc(-c3cccc(C#N)c3)cnc2n(O)c1=O [Example 60, Ethyl 6-(3-cyanophenyl)-1,4-dihydroxy-2-oxo-1,2-dihydro-1,8-naphthyridine-3-carboxylate] | > 100 | < 50
NCc1cccc(CNC(=O)Cc2c(O)c3cccnc3n(O)c2=O)c1 [Example 224] | < 100 | < 50
CCOC(=O)c1c(N2CCc3ccc(-c4ccc(F)cc4)cc3C2)c2cccnc2n(O)c1=O [Example 258, ethyl 4-[7-(4-fluorophenyl)-3,4-dihydroisoquinolin-2(1H)-yl]-1-hydroxy-2-oxo-1,2-dihydro-1,8-naphthyridine-3-carboxylate] | < 100 | > 50
CN1CCN(c2cc(=O)n(O)c3ncccc23)CC1=O [Example 148, 1-hydroxy-4-(4-methyl-3-oxo-1-piperazinyl)-1,8-naphthyridin-2 (1H-one)] | < 100 | < 50
O=C(CN1CCN(Cc2cccc(-c3cc(=O)n(O)c4ncccc34)c2)CC1)N1CCOCC1 [Example 211, 1-hydroxy-4-[3-({4-[2-(4-morpholinyl)-2-oxoethyl]-1-piperazinyl}methyl)phenyl]-1,8-naphthyridin-2(1H-one)] | < 100 | < 50
O=c1cc(NCCc2ccccc2)c2cccnc2n1O [Example 132, 1-hydroxy-4-[(2-phenylethyl)amino]-1,8-naphthyridin-2(1H)-one] | < 100 | < 50
CCOC(=O)c1c(O)c2cc(C(=O)NC3CCCCC3)cnc2n(O)c1=O [Example 86, ethyl-6-[(cyclohexylamino)carbonyl]-1,4-dihydroxy-2-oxo-1,2-dihydro-1,8-naphthyridine-3-carboxylate] | < 100 | < 50
Nc1cccc(-c2ccc3c(c2)CN(c2cc(=O)n(O)c4ncccc24)CC3)c1 [Example 251, 4-[7-(3-aminophenyl)-3,4-dihydroisoquinolin-2(1H)-yl]-1-hydroxy-1,8-naphthyridin-2(1H)-one] | < 100 | < 50
O=C1N[C@H](c2ccccc2)[C@H](c2ccccc2)Nc2c1c(=O)n(O)c1ncccc21 [Example 170, (2S, 3R)-7-hydroxy-2,3-diphenyl-3,4-dihydro-1H-[1,4]diazepino[6,5-c]-1,8-naphthyridine-5,6(2H, 7H)-dione] | < 100 | < 50
Nc1cnc2c(c1)c(O)c(-c1ccccc1)c(=O)n2O [Example 250, 6-amino-1,4-dihydroxy-3-phenyl-1,8-naphthyridin-2(1H)-one] | < 100 | < 50
CCOC(=O)c1c(O)c2cc(C(=O)N3CCC(Cc4ccccc4)C3)cnc2n(O)c1=O (stereo not shown) [Example 85, Ethyl 6-[(3-benzylpyrrolidin-1-yl)carbonyl]-1,4-dihydroxy-2-oxo-1,2-dihydro-1,8-naphthyridine-3-carboxylate] | < 100 | < 50
O=c1cc(-c2ccc3ccccc3c2)c2cccnc2n1O [Example 173, 1-hydroxy-4-(2-naphthyl)-1,8-naphthyridin-2(1H)-one] | < 100 | < 50
